According to patent US4206215A, “Antimicrobial bis-[4-(substituted-amino)-1-pyridinium]alkanes” (Sterling Drug Inc., priority 1977, dated 1980):

Tests used:
[1] = system: S. Aureus Smith; assay: In vitro antibacterial activity, MIC (modified Autotiter method); format: cell-based, Staphylococcus aureus; conditions: Staphylococcus aureus, 20 h, 18-20 hours at 37° C.; read-out: MIC S. Aureus Smith
Summary of the method: (§1)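 Modified Goss Autotiter dilution. 1,000 mcg./ml. solution → twofold series in sterile H2O → inoculated 2x glucose semisynthetic medium added. Tested finals 500–0.06 mcg./ml.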

[2] = system: E. coli 100/B22; assay: as above; format: cell-based, Escherichia coli; conditions: Escherichia coli, 100/B22, 20 h, 18-20 hours at 37° C.; read-out: MIC E. coli 100/B22
Summary of the method: as §1

[3] = system: E. coli AB1932-1; assay: as above; format: cell-based, Escherichia coli; conditions: Escherichia coli, AB19321, 20 h, 18-20 hours at 37° C.; read-out: MIC E. coli AB1932-1
Summary of the method: as §1

[4] = system: E. coli Vogel; assay: as above; format: cell-based, Escherichia coli; conditions: Escherichia coli, 20 h, 18-20 hours at 37° C.; read-out: MIC E. coli Vogel
Summary of the method: as §1

[5] = system: K. pneum. 39645; assay: as above; format: cell-based, Klebsiella pneumoniae; conditions: Klebsiella pneumoniae, 20 h, 18-20 hours at 37° C.; read-out: MIC K. pneum. 39645
Summary of the method: as §1

[6] = system: P. mirab. MGH-1; assay: as above; format: cell-based, Proteus mirabilis; conditions: Proteus mirabilis, 20 h, 18-20 hours at 37° C.; read-out: MIC P. mirab. MGH-1
Summary of the method: as §1

[7] = system: Ps. aerug. MGH-2; assay: as above; format: cell-based, Pseudomonas aeruginosa; conditions: Pseudomonas aeruginosa, 20 h, 18-20 hours at 37° C.; read-out: MIC Ps. aerug. MGH-2
Summary of the method: as §1

[8] = system: S. pyogen. C203; assay: as above; format: cell-based, Streptococcus pyogenes; conditions: 18-20 hours at 37° C.; for MIC: Streptococcus pyogenes, 20 h, read-out: MIC S. pyogen. C203
Summary of the method: as §1

[9] = system: A. niger 16404; assay: In vitro antifungal activity, MIC (modified Autotiter method); format: cell-based, Aspergillus niger; conditions: 18-20 hours at 37° C.; for MIC: Aspergillus niger, 16404, 20 h, read-out: MIC A. niger 16404
Summary of the method: as §1

[10] = system: C. albicans 10231; assay: as above; format: cell-based, Candida albicans; conditions: Candida albicans, 10231, 20 h, 18-20 hours at 37° C.; read-out: MIC C. albicans 10231
Summary of the method: as §1

[11] = system: C. albicans Wisc.; assay: as above; format: cell-based, Candida albicans; conditions: Candida albicans, 20 h, 18-20 hours at 37° C.; read-out: MIC C. albicans Wisc.
Summary of the method: as §1

[12] = system: T. menta. 9129; assay: as above; format: cell-based, Trichophyton mentagrophytes; conditions: Trichophyton mentagrophytes, 20 h, 18-20 hours at 37° C.; read-out: MIC T. menta. 9129
Summary of the method: as §1

[13] = system: Herpes simplex type 2 virus; assay: Virucidal activity in vitro (plaque inhibition test); format: cell-based; conditions: 2 mg. of test compound on growth medium
Procedure: Virucidal activity of representative examples against Herpes simplex type 2 virus was determined in vitro employing a procedure similar to the plaque inhibition test for detection of specific inhibitors of DNA-containing viruses published by E. C. Herrmann, Jr., Proc. Soc. Exp. Biol. Med. 107, 142 (1961) wherein 2 mg. of the test compound was placed on the surface of the growth medium.

What does the source list for `CCCCCCNc1cc[n+](CCCCC[n+]2ccc(NCCCCCC)cc2)cc1` [Example 31, 1,5-bis-[4-(hexylamino)-1-pyridinium]pentane dibromide]?
MIC [1]: 1.95 µg/mL; MIC [2]: 62.5 µg/mL; MIC [3]: 31.3 µg/mL; MIC [4]: 125 µg/mL; MIC [5]: > 125 µg/mL; MIC [6]: > 250 µg/mL; MIC [7]: > 125 µg/mL; MIC [8]: 0.98 µg/mL; MIC [9]: 31.3 µg/mL; MIC [10]: 31.3 µg/mL; MIC [11]: 62.5 µg/mL; MIC [12]: 31.3 µg/mL; Virucidal activity against Herpes simplex type 2 virus [13]: active

Which results are given for `c1c[n+](CCCCCC[n+]2ccc(NC3CCCCC3)cc2)ccc1NC1CCCCC1` [Example 36, 1,6-bis-[4-(cyclohexylamino)-1-pyridinium]hexane dibromide]?
MIC [1]: 15.6 µg/mL; MIC [2]: > 125 µg/mL; MIC [3]: 125 µg/mL; MIC [4]: > 125 µg/mL; MIC [5]: > 125 µg/mL; MIC [6]: > 125 µg/mL; MIC [7]: > 125 µg/mL; MIC [8]: 15.6 µg/mL; MIC [9]: 125 µg/mL; MIC [10]: 125 µg/mL; MIC [11]: 125 µg/mL; MIC [12]: 15.6 µg/mL; Virucidal activity against Herpes simplex type 2 virus [13]: active

What does the source list for `CCCCC(CC)CNc1cc[n+](CCCC[n+]2ccc(NCC(CC)CCCC)cc2)cc1` (stereo not drawn) [Example 63, 1,4-bis-[4-(2-ethylhexylamino)-1-pyridinium]butane dibromide]?
MIC [1]: 0.98 µg/mL; MIC [2]: 31.3 µg/mL; MIC [3]: 7.8 µg/mL; MIC [4]: 62.5 µg/mL; MIC [5]: > 125 µg/mL; MIC [6]: > 125 µg/mL; MIC [7]: 125 µg/mL; MIC [8]: 1.25 µg/mL; MIC [9]: 31.3 µg/mL; MIC [10]: 31.3 µg/mL; MIC [11]: 31.3 µg/mL; MIC [12]: 15.6 µg/mL; Virucidal activity against Herpes simplex type 2 virus [13]: active

What does the source list for `CCCCCCCNc1cc[n+](CCCCCC[n+]2ccc(NCCCCCCC)cc2)cc1` [Example 61, 1,6-bis-[4-(heptylamino)-1-pyridinium]hexane dibromide]?
MIC [1]: 0.2 µg/mL; MIC [2]: 1.6 µg/mL; MIC [3]: 1.6 µg/mL; MIC [4]: 3.1 µg/mL; MIC [5]: 6.3 µg/mL; MIC [6]: > 250 µg/mL; MIC [7]: 125 µg/mL; MIC S. pyogen. C203 [8]: 0.4 µg/mL; MIC A. niger 16404 [9]: 25 µg/mL; MIC [10]: 6.25 µg/mL; MIC [11]: 6.25 µg/mL; MIC [12]: 3.13 µg/mL; Virucidal activity against Herpes simplex type 2 virus [13]: active

Which MIC [1] does the source give for `c1c[n+](CCCCCCCCCC[n+]2ccc(NC3CCCCC3)cc2)ccc1NC1CCCCC1` [Example 40, 1,10-bis-[4-(cyclohexylamino)-1-pyridinium]decane dibromide] here?
Its MIC is 0.24 µg/mL.

And the MIC [2]?
Its MIC is 15.6 µg/mL.

And the MIC [3]?
Its MIC is 7.8 µg/mL.

And the MIC [4]?
Its MIC is 15.6 µg/mL.

And the MIC [5]?
The MIC was over 125 µg/mL.

What about the MIC [6] of the same compound?
The MIC was over 125 µg/mL.

What about the MIC [7] of the same compound?
The MIC was over 125 µg/mL.

What about the MIC [8] of the same compound?
Its MIC is 3.9 µg/mL.

And the MIC [9]?
The MIC was 7.8 µg/mL.

And the MIC [10]?
Its MIC is 3.9 µg/mL.

And the MIC [11]?
The MIC was 7.8 µg/mL.

And the MIC [12]?
Its MIC is 1.95 µg/mL.

And the “Virucidal activity against Herpes simplex type 2 virus” value (“Virucidal activity” below) [13]?
The value was “inactive”.

For `CCCCC(CC)CNc1cc[n+](CCCCCCC[n+]2ccc(NCC(CC)CCCC)cc2)cc1` (stereo not drawn) [Example 55, 1,7-bis-[4-(2-ethylhexylamino)-1-pyridinium]heptane dibromide], which MIC [1] is on record?
The MIC was 0.49 µg/mL.

What about the MIC [2] of the same compound?
The MIC was 3.9 µg/mL.

And the MIC [3]?
The MIC was 3.9 µg/mL.

What about the MIC [4] of the same compound?
Its MIC is 3.9 µg/mL.

What about the MIC [5] of the same compound?
The MIC was 7.8 µg/mL.

What about the MIC [6] of the same compound?
Its MIC is over 125 µg/mL.

What about the MIC [7] of the same compound?
Its MIC is 125 µg/mL.

What about the MIC [8] of the same compound?
The MIC was 0.49 µg/mL.

What about the MIC [9] of the same compound?
Its MIC is 15.6 µg/mL.

What about the MIC [10] of the same compound?
The MIC was 7.8 µg/mL.

What about the MIC [11] of the same compound?
Its MIC is 7.8 µg/mL.

And the MIC [12]?
Its MIC is 1.95 µg/mL.

What about the “Virucidal activity” value [13] of the same compound?
Its value is “active”.

How did the MIC [1] turn out when `CCCCCCNc1cc[n+](CCCCCC[n+]2ccc(NCCCCCC)cc2)cc1` [Example 17, 1,6-bis-[4-(hexylamino)-1-pyridinium]-hexane dibromide] was run?
The MIC was 0.49 µg/mL.

And the MIC [2]?
Its MIC is 0.78 µg/mL.

What about the MIC [3] of the same compound?
The MIC was 7.8 µg/mL.

What about the MIC [4] of the same compound?
Its MIC is 31.3 µg/mL.

And the MIC [5]?
Its MIC is 125 µg/mL.

And the MIC [6]?
The MIC was over 250 µg/mL.

What about the MIC [7] of the same compound?
Its MIC is over 125 µg/mL.

What about the MIC [8] of the same compound?
The MIC was over 250 µg/mL.

And the MIC [9]?
The MIC was 7.8 µg/mL.

And the MIC [10]?
The MIC was 15.6 µg/mL.

What about the MIC [11] of the same compound?
Its MIC is 15.6 µg/mL.

And the “Virucidal activity” value [13]?
Its value is “active”.
